Experimental findings from patent US20220153751A1, “BIFUNCTIONAL COMPOUNDS” (BioTheryX, Inc., priority 2018, published 2022) are described below.

Each structure is given as a SMILES string. Some results are limits rather than exact numbers.

As usually defined, the Dmax is the largest share of the target that was removed. A low value points to shallow degradation. The term fold induction denotes the ratio of treated to control signal. One may read the viability as a read-out of living cells in per cent, often relative to untreated cells. Broadly, the inhibition is the percentage by which the read-out fell short of the control.

Common to all, as to type: cell-based
For one experiment, the target named is T1, GSPT1 (Homo sapiens, UniProt P15170+Q96SW2).
T1 construct: Whole cell extracts were prepared using RIPA buffer; endogenous in cells; host or cells: MV-4-11
T1 sequence (P15170 whole entry): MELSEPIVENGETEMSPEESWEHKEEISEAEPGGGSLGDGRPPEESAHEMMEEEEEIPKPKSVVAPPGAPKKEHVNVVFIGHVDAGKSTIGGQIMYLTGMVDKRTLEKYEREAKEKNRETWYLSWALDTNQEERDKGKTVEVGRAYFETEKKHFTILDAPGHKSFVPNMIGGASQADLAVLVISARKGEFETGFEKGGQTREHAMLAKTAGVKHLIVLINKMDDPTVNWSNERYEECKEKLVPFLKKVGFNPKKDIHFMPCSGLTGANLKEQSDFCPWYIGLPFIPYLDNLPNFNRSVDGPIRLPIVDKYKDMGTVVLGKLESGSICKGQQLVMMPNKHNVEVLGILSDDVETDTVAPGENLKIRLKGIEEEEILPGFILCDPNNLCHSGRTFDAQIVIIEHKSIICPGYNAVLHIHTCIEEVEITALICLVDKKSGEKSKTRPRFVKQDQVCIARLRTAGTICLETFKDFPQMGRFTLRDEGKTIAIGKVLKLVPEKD
T1 sequence (Q96SW2 whole entry): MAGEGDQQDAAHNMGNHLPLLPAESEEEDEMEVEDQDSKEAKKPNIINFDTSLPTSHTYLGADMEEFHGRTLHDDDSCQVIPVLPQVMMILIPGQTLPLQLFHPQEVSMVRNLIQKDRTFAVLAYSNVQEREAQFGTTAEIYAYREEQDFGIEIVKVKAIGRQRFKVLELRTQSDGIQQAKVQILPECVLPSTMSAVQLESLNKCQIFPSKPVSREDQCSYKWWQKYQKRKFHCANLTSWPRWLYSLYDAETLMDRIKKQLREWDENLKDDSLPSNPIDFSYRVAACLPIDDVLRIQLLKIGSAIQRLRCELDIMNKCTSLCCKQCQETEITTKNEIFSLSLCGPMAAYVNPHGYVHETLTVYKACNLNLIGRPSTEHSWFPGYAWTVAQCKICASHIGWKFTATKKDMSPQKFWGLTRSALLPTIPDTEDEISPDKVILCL
T1 sequence (Q16531 whole entry partner): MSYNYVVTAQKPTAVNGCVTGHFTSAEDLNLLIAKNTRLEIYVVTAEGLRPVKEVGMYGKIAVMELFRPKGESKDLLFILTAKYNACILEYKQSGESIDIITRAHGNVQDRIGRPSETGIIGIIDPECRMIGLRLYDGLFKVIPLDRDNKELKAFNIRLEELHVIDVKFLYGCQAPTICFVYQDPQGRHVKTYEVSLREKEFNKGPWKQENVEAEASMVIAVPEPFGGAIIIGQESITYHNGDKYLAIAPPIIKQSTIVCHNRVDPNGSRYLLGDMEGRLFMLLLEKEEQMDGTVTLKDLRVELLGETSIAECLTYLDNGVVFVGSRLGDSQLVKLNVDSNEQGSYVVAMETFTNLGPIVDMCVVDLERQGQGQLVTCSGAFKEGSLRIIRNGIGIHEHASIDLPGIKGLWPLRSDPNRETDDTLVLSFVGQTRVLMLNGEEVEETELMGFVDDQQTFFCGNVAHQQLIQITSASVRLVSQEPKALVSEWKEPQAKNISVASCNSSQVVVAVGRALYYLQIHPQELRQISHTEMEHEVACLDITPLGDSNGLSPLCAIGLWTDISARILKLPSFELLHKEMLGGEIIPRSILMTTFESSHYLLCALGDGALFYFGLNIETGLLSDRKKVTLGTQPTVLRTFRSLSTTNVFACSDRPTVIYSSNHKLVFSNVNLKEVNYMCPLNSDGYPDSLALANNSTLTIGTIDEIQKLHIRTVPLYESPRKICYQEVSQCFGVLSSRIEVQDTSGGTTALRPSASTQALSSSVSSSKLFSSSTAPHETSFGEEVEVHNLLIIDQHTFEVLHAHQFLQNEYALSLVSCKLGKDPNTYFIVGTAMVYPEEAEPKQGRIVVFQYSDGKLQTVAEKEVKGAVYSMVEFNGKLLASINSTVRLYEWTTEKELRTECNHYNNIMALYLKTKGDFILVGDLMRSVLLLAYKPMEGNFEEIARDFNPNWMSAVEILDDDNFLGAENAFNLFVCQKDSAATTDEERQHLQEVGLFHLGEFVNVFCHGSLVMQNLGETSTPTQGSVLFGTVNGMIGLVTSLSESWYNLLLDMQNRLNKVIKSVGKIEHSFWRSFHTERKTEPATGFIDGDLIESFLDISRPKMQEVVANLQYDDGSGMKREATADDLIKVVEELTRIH
As to the kind of experiment: GSPT1 degradation assay (Western blot, MV-4-11 cells). Particulars: MV4-11, 6-8 h. An outline of the steps:
(§1)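 Reported degradation is grouped into four bands (A below 25%, B 25% to under 50%, C 50% to under 75%, D 75% or more). Treatment lasts 6-8 h against a DMSO control, followed by RIPA extraction and immunoblotting with near-infrared detection.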
For orientation: Immunoblotting shows a protein as a band on a membrane.

In the next experiment the test system is IL-2. Nature of the experiment: IL-2 fold-change assay, anti-CD3 stimulated PBMCs (Mesoscale). Particulars: PBMC, PBMCs on anti-human CD3, 24 h, fold difference from the DMSO control. On the procedure:
For the IL-2 analysis, 96 well plates were precoated with 1 μg/mL anti-human CD3 antibody (OK3, eBioscience Inc., San Diego, Calif.). After washing with PBS, the indicated compound was added (50 μL/well) followed by PBMCs diluted at 3-4 million cells/mL (150 μL/well). Plates were incubated for 24 h and the supernatants collected for Mesoscale IL-2 analysis. IL-2 activity is measured as fold difference from the DMSO control.
In Table 6, the % inhibition values are reported as “A”, “B”, “C”, or “D”. “A” represents a % inhibition value of less than 50% (value <50%). “B” represents a % inhibition value of equal to or more than 50% and less than 70% (50%≤value<70%). “C” represents a % inhibition value of equal to or more than 70% and less than 90% (70%≤value<90%). “D” represents a % inhibition value of equal or more than 90% (value ≥90%). In Table 7, the fold-change values are reported as “A”, “B”, “C”, or “D”. “A” represents a fold-change value of equal to or less than 0.1 (value ≤0.1). “B” represents a fold-change value of more than 0.1 and equal to or less than 0.5 (0.1<value≤0.5). “C” represents a fold-change value of more than 0.5 and equal to or less than 1 (0.5<value≤1). “D” represents a fold-change value of more than 1 (value >1).

The next experiment has as its system MOLM-13 cells. As to the kind of experiment: MOLM-13 cell viability assay (CellTiter-Glo). The note with it: Homo sapiens, MOLM-13, 72 h, 3 days, read-out: MOLM-13 Cell Viability % DMSO at 1 μM. An outline of the steps:
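MOLM-13 cells at 2500 cells/well were exposed to compound for 3 days at 37 °C. Viability was read by CellTiter-Glo luminescence and expressed as % of DMSO control, binned A (<50%), B (50–<70%), C (70–<90%) or D (≥90%).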
For orientation: Cellular ATP, detected with luciferase, serves as a proxy for viable cell number.

Another experiment concerns IL-6. As to the kind of experiment: IL-6 inhibition assay, LPS-induced PBMCs / CD14+ monocytes (Meso Scale). Particulars: 1 h pretreatment, 100 ng/mL LPS 18-24 h. An outline of the steps:
(§2)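 Thawed human PBMCs or CD14+ mobilized peripheral blood monocytes, 200,000 cells/well in RPMI-1640/10% FBS, pretreated with compound or DMSO 1 h, then stimulated with 100 ng/mL LPS for 18-24 h. Supernatant cytokine measured by Meso Scale; % inhibition binned A–D (<50%, 50–70%, 70–90%, ≥90%), fold-change binned A–D (≤0.1, ≤0.5, ≤1, >1).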

In the next experiment the test system is IL-1β. Nature of the experiment: IL-1β inhibition assay, LPS-induced PBMCs / CD14+ monocytes (Meso Scale). Particulars: 1 h pretreatment, 100 ng/mL LPS 18-24 h. In a few lines:
as §2

The target in the next experiment is T2, IKAROS (Homo sapiens, UniProt Q13422+Q96SW2).
T2 construct: endogenous in cells; host or cells: MV-4-11
T2 sequence (Q13422 whole entry): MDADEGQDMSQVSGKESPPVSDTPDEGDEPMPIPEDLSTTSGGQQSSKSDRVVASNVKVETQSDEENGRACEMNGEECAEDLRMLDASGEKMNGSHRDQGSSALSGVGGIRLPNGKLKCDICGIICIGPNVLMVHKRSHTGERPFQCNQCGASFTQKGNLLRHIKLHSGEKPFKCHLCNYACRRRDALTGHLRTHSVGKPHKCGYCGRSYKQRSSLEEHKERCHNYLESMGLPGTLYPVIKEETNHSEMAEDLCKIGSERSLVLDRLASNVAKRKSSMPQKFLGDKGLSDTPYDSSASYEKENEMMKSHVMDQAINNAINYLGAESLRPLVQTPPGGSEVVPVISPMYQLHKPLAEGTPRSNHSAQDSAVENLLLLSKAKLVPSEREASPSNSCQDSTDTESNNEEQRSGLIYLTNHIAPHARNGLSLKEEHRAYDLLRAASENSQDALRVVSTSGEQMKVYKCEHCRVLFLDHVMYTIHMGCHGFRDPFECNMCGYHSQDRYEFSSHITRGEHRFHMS
T2 sequence (Q96SW2 whole entry): as the sequence (Q96SW2 whole entry) above
T2 sequence (Q16531 whole entry partner): as the sequence (Q16531 whole entry partner) above
As to the kind of experiment: IKAROS degradation assay (Western blot, MV-4-11 cells). The note with it: MV4-11, 6-8 h. In a few lines:
as §1

The subject of another experiment is TNF-α. As to the kind of experiment: TNF-α inhibition assay, LPS-induced PBMCs / CD14+ monocytes (Meso Scale). The note with it: 1 h pretreatment, 100 ng/mL LPS 18-24 h. An outline of the steps: as §2
Another experiment concerns the target T3, CDK16 (Homo sapiens, UniProt Q00536).
T3 construct: Whole cell extracts were prepared using RIPA buffer; endogenous in cells; host or cells: MV-4-11
Nature of the experiment: CDK16 degradation assay (Western blot, MV-4-11 cells). Particulars: 6-8 h; for Dmax at 0.1 µM: MV4-11, 0.1 μM; for Dmax at 1 µM: MV4-11, 1 μM. An outline of the steps: as §1

In the next experiment the target is T4, CDK9 (Homo sapiens, UniProt P50750).
T4 construct: Whole cell extracts were prepared using RIPA buffer; endogenous in cells; host or cells: MV-4-11
T4 sequence (P50750 whole entry): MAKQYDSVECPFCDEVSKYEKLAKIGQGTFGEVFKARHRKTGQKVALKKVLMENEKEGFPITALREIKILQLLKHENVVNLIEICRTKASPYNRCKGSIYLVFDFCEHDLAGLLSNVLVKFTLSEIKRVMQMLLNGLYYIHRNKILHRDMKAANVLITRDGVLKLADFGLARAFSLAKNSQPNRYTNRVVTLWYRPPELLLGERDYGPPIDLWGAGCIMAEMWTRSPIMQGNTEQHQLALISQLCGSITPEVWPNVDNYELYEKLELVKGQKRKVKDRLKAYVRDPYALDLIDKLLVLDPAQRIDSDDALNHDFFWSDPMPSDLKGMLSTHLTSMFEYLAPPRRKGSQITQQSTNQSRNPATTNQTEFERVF
As to the kind of experiment: CDK9 degradation assay (Western blot, MV-4-11 cells). Particulars: 6-8 h; for Dmax at 0.1 µM: MV4-11, 0.1 μM; for Dmax at 1 µM: MV4-11, 1 μM. In a few lines: as §1

T3 sequence (Q00536 whole entry): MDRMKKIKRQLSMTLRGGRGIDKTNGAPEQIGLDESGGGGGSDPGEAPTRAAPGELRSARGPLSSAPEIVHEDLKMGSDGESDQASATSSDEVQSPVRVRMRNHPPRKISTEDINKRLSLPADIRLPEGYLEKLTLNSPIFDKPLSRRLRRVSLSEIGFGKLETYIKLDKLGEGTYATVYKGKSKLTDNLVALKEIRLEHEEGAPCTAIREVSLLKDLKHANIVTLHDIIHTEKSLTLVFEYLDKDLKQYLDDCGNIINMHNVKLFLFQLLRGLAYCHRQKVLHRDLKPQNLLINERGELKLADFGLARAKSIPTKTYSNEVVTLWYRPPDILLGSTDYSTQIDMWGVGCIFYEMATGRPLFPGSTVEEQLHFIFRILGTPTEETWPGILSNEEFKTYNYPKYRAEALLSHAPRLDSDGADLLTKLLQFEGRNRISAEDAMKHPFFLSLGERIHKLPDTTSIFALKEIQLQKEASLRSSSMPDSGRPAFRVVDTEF

As to `Cn1ncc(-c2nc(N[C@H]3CC[C@H](NCC(=O)NCCOCCOCC(=O)NCc4ccc(COc5cccc6c5CN(C5CCC(=O)NC5=O)C6=O)cc4)CC3)ncc2Cl)c1CC1CC1` (stereo partly shown) [Compound 28, 2-(((1r,4r)-4-((5-chloro-4-(5-(cyclopropylmethyl)-1-methyl-1H-pyrazol-4-yl)pyrimidin-2-yl)amino)cyclohexyl)amino)-N-(2-(2-(2-((4-(((2-(2,6-dioxopiperidin-3-yl)-1-oxoisoindolin-4-yl)oxy)methyl)benzyl)amino)-2-oxoethoxy)ethoxy)ethyl)acetamide], the Dmax at 1 µM at GSPT1 was below 25%; at IKAROS, 50 to 75%. Moreover, the fold induction at 1 µM in the experiment with IL-2 was at most 0.1. In addition, in the experiment on MOLM-13 cells, the viability at 1 µM was above 90%. Also, the inhibition at 1 µM in the experiment with IL-6, in the experiment on IL-1β and in the experiment with TNF-α was above 90% each time.
Consider `CC(C)(C)c1cnc(CSc2cnc(NC(=O)C3CCN(CC(=O)NCCOCCOCCNC(=O)NCc4cc5c(s4)C(=O)N(C4CCC(=O)NC4=O)C5)CC3)s2)o1` (stereo not shown) [Compound 13, N-(5-(((5-(tert-butyl)oxazol-2-yl)methyl)thio)thiazol-2-yl)-1-(1-(5-(2,6-dioxopiperidin-3-yl)-6-oxo-5,6-dihydro-4H-thieno[2,3-c]pyrrol-2-yl)-3,14-dioxo-7,10-dioxa-2,4,13-triazapentadecan-15-yl)piperidine-4-carboxamide], for which the greatest degradation seen (Dmax) at 0.1 µM at CDK16 was below 25%; on CDK9 it was 50 to 75%. Further, the figures for the Dmax at 1 µM on CDK16 and at CDK9 were below 25% and at least 75%, respectively. Moreover, the fold induction at 1 µM in the experiment on IL-2 was at most 0.1. In addition, the viability at 1 µM with MOLM-13 cells is above 90%. For the same compound, the inhibition at 1 µM in the experiment with IL-6, in the experiment on IL-1β and in the experiment on TNF-α was above 90% each time.
Regarding `Cn1ncc(-c2nc(N[C@H]3CC[C@H](NCCCCCCNC(=O)NCc4cc5c(s4)C(=O)N(C4CCC(=O)NC4=O)C5)CC3)ncc2F)c1CC1CC1` (stereo partly shown) [Compound 21, 1-(6-(((1r,4r)-4-((4-(5-(cyclopropylmethyl)-1-methyl-1H-pyrazol-4-yl)-5-fluoropyrimidin-2-yl)amino)cyclohexyl)amino)hexyl)-3-((5-(2,6-dioxopiperidin-3-yl)-6-oxo-5,6-dihydro-4H-thieno[2,3-c]pyrrol-2-yl)methyl)urea], the fold induction at 1 µM in the experiment with IL-2 fell in the range of 0.1 to 0.5. Further, the viability at 1 µM in the experiment with MOLM-13 cells is above 90%. In addition, the inhibition at 1 µM in the experiment on IL-6, in the experiment with IL-1β and with TNF-α was below 50% in each case. The Dmax at 1 µM at IKAROS is at least 75%.
Take `Cc1nc2c(CNC(=O)NCCCCCCCCN[C@H]3CC[C@H](Nc4ncc(Cl)c(-c5cnn(C)c5CC5CC5)n4)CC3)scc2c(=O)n1C1CCC(=O)NC1=O` (stereo partly shown) [Compound 61, 1-(8-(((1r,4r)-4-((5-chloro-4-(5-(cyclopropylmethyl)-1-methyl-1H-pyrazol-4-yl)pyrimidin-2-yl)amino)cyclohexyl)amino)octyl)-3-((3-(2,6-dioxopiperidin-3-yl)-2-methyl-4-oxo-3,4-dihydrothieno[3,4-d]pyrimidin-7-yl)methyl)urea]: the fold induction at 1 µM in the experiment on IL-2 was 0.1 to 0.5. The viability at 1 µM with MOLM-13 cells is above 90%. Further, the inhibition at 1 µM in the experiment with IL-6, with IL-1β and in the experiment on TNF-α was above 90% each time. On IKAROS, this compound gave a Dmax at 1 µM of 25 to 50%.
In the case of `CC(C)(C)c1cnc(CSc2cnc(NC(=O)C3CCN(CCCCCCCNCC(=O)NCc4cc5c(s4)C(=O)N(C4CCC(=O)NC4=O)C5)CC3)s2)o1` (stereo not shown) [Compound 57, N-(5-(((5-(tert-butyl)oxazol-2-yl)methyl)thio)thiazol-2-yl)-1-(7-((2-(((5-(2,6-dioxopiperidin-3-yl)-6-oxo-5,6-dihydro-4H-thieno[2,3-c]pyrrol-2-yl)methyl)amino)-2-oxoethyl)amino)heptyl)piperidine-4-carboxamide], in the experiment with IL-2, the fold induction at 1 µM was at most 0.1. In addition, the viability at 1 µM in the experiment with MOLM-13 cells was above 90%. Also, the inhibition at 1 µM with IL-6, in the experiment with IL-1β and with TNF-α was above 90% each time. For the same compound, the maximal degradation (Dmax) at 1 µM at IKAROS was in the range of 25 to 50%.
Consider `CC(C)(C)c1cnc(CSc2cnc(NC(=O)C3CCN(CC(=O)NCCOCCNC(=O)NCc4scc5c4CN(C4CCC(=O)NC4=O)C5=O)CC3)s2)o1` (stereo not shown) [Compound 2, 3-{6-Oxo-2-[(3-{2-[2-(2-{4-[(5-{[5-(tert-butyl)-1,3-oxazol-2-yl]methylthio}-1,3-thiazol-2-ylamino)carbonyl]-1-piperidyl}acetylamino)ethoxy]ethyl}ureido)methyl]-3-thia-7-azabicyclo[3.3.0]octa-1,4-dien-7-yl}-2,6-piperidinedione], for which the fold induction at 1 µM in the experiment on IL-2 lay within 0.1 to 0.5. In addition, the viability at 1 µM in the experiment on MOLM-13 cells was above 90%. The inhibition at 1 µM with IL-6 was above 90%; with IL-1β, above 90%; with TNF-α it was 70 to 90%. On IKAROS, this compound showed a maximal degradation (Dmax) at 1 µM of 25 to 50%.
On to `CC(C)(C)c1cnc(CSc2cnc(NC(=O)C3CCN(CC(=O)NCCOCCOCCNCC(=O)NCc4scc5c4CN(C4CCC(=O)NC4=O)C5=O)CC3)s2)o1` (stereo not shown) [Compound 26, N-(5-(((5-(tert-butyl)oxazol-2-yl)methyl)thio)thiazol-2-yl)-1-(1-(5-(2,6-dioxopiperidin-3-yl)-4-oxo-5,6-dihydro-4H-thieno[3,4-c]pyrrol-1-yl)-3,15-dioxo-8,11-dioxa-2,5,14-triazahexadecan-16-yl)piperidine-4-carboxamide], for which the greatest degradation seen (Dmax) at 0.1 µM is 25 to 50% on CDK16 and 50 to 75% on CDK9. The Dmax at 1 µM at CDK16 was below 25%; at CDK9, at least 75%; on IKAROS, 50 to 75%. For the same compound, the fold induction at 1 µM in the experiment on IL-2 is at most 0.1. Besides, the viability at 1 µM in the experiment with MOLM-13 cells was above 90%. Also, the inhibition at 1 µM in the experiment on IL-6 is above 90%; in the experiment on IL-1β, above 90%; with TNF-α it was 70 to 90%.
As for `Cn1ncc(-c2cc(N[C@H]3CC[C@H](NCC(=O)NCCNCC(=O)NCc4cc5c(s4)C(=O)N(C4CCC(=O)NC4=O)C5)CC3)ncc2F)c1CC1CC1` (stereo partly shown) [Compound 63, 2-(((1r,4r)-4-((4-(5-(cyclopropylmethyl)-1-methyl-1H-pyrazol-4-yl)-5-fluoropyridin-2-yl)amino)cyclohexyl)amino)-N-(2-((2-(((5-(2,6-dioxopiperidin-3-yl)-6-oxo-5,6-dihydro-4H-thieno[2,3-c]pyrrol-2-yl)methyl)amino)-2-oxoethyl)amino)ethyl)acetamide], the figures for the Dmax at 1 µM on GSPT1 and at IKAROS were below 25% and 25 to 50%, respectively. Moreover, the fold induction at 1 µM in the experiment on IL-2 was above 1. Further, the viability at 1 µM in the experiment with MOLM-13 cells is above 90%.
Turning to `CC(C)(C)c1cnc(CSc2cnc(NC(=O)C3CCN(CC(=O)NCCOCCOCCOCCNCC(=O)NCc4cc5c(s4)C(=O)N(C4CCC(=O)NC4=O)C5)CC3)s2)o1` (stereo not shown) [Compound 42, N-(5-(((5-(tert-butyl)oxazol-2-yl)methyl)thio)thiazol-2-yl)-1-(1-(5-(2,6-dioxopiperidin-3-yl)-6-oxo-5,6-dihydro-4H-thieno[2,3-c]pyrrol-2-yl)-3,18-dioxo-8,11,14-trioxa-2,5,17-triazanonadecan-19-yl)piperidine-4-carboxamide], the Dmax at 0.1 µM on CDK16 is below 25%; on CDK9, 25 to 50%. The Dmax at 1 µM on CDK16 is below 25%; on CDK9, at least 75%; on IKAROS, 25 to 50%. Moreover, the fold induction at 1 µM with IL-2 lay within 0.1 to 0.5. Further, the viability at 1 µM in the experiment with MOLM-13 cells was in the range of 70 to 90%. Besides, the inhibition at 1 µM is above 90% in the experiment on IL-6, above 90% with IL-1β and below 50% in the experiment on TNF-α.
